These results are taken from patent US10301265B2 (priority 2008, dated 2019).

Where “and” joins values, the source holds several entries; their conditions need not be identical. Equal values may be shown once. Read-outs that look alike come from different tables or passages of the source. Marks after values point to notes of the source that are not given here. Bounds are passed on as bounds.

Series [1] concerns the target recombinant full-length BoNT/B light chain (rBLC) (Clostridium botulinum, UniProt P10844). The series can be described thus: biochemical. Particulars: for inhibition at 20 µM: read-out: % Inhibition Against rBLC.
The next series concerns neuroblastoma N2a cells. Particulars: for concentration well-tolerated by the cells / concentration toxic to N2a cells: mouse.
The test system of series [2] is BoNT/A-mediated cleavage of intracellular SNAP-25 in N2a cells. Type of series: cell-based, murine. As to conditions: 10 μM.
Series [3] addresses recombinant full-length BoNT/A light chain (rALC) (Clostridium botulinum, UniProt P0DPI0). Description: biochemical. As to conditions: read-out: % Inhibition Against rALC.
A further series addresses BoNT/A (Clostridium botulinum, UniProt P0DPI0). Description: biochemical. Particulars: for inhibition at 5 µM: read-out: % Inhibition against BoNT/A (5 μM).
Series [4] has as its system BoNT/A-induced neuromuscular block in mouse phrenic nerve hemidiaphragm.

Chain of recombinant full-length BoNT/A light chain (rALC) (P0DPI0 2-448 limits assumed): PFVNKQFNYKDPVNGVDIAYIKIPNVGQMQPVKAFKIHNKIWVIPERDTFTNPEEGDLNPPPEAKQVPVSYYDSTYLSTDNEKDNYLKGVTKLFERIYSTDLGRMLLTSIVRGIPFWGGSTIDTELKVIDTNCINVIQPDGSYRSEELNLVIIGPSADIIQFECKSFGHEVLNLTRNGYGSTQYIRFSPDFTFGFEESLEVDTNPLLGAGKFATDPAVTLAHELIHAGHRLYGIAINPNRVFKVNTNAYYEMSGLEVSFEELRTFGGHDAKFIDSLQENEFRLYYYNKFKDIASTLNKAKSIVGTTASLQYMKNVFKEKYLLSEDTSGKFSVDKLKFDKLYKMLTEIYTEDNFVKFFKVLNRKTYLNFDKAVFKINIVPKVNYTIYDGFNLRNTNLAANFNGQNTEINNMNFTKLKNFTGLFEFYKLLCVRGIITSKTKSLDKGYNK
Chain of recombinant full-length BoNT/B light chain (rBLC) (P10844 2-441 limits assumed): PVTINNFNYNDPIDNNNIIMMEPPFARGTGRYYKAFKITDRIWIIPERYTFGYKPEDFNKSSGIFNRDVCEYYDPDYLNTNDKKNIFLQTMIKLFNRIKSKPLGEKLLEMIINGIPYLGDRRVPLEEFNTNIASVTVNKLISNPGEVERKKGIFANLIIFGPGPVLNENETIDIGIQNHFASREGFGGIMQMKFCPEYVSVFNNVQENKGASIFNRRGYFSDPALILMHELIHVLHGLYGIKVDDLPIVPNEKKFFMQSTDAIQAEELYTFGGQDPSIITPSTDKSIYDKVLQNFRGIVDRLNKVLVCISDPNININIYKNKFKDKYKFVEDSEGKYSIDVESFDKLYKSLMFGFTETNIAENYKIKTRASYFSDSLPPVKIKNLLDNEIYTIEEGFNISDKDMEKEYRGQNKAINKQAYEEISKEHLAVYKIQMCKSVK
Chain of BoNT/A (P0DPI0 1-448 limits assumed): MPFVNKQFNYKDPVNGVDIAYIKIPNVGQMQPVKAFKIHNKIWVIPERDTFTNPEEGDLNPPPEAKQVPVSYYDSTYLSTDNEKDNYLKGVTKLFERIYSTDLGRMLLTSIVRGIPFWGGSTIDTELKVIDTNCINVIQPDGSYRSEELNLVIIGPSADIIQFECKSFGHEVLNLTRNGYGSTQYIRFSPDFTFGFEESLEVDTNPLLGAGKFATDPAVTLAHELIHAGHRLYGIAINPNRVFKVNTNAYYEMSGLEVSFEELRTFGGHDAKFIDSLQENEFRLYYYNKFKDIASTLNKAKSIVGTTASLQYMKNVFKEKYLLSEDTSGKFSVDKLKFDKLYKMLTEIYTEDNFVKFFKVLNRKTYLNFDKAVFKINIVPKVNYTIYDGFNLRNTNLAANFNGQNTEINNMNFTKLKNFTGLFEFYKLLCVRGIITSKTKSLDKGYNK

As for `CCOc1ccc(C(Nc2cccnc2)c2cc(Cl)c3cccnc3c2O)cc1` (racemic) [CB 7969312], in series [1], the inhibition at 20 µM came out at 31.2 ± 3%. Also, in the series with neuroblastoma N2a cells, the “cell toxicity” value is given as “non-toxic to cells” and the “concentration well-tolerated by the cells” value (“concentration well-tolerated” below) was “up to 50 μM”. For the same compound, in series [2], the “inhibition of SNAP-25 cleavage” value is “near-to-complete inhibition”. Further, the inhibition at 20 µM in series [3] was 96.2 ± 1.2%.

Consider `Cc1ccc2ccc(C(Nc3cccnc3)c3ccccc3)c(O)c2n1` (stereo not drawn) [Compound 5116-047A], for which the inhibition at 5 µM at BoNT/A stood at 83%. In addition, the IC50 (commonly the midpoint of a concentration-inhibition curve) on BoNT/A (read-out: IC50) stood at 1400 nM.

With `Oc1c(C(Nc2cccnc2)c2ccccc2F)ccc2cccnc12` (racemic) [CB 7968218], the “effective concentration of inhibitor required for maximum protection” value in series [4] was 10 µM. For the same compound, the inhibition at 20 µM in series [1] turned out to be 16.8 ± 2.2%. In the series with neuroblastoma N2a cells, the “cell toxicity” value is “non-toxic to cells” and the “concentration toxic to N2a cells” value is recorded as “above 45 μM”. Further, the “protection from SNAP-25 cleavage” value in series [2] was 68%. Also, the inhibition at 20 µM in series [3] is 92.8 ± 0.8%.

In the case of `Oc1c(C(Nc2cccc3cccnc23)c2ccccc2)ccc2cccnc12` (racemic) [NSC 84096], in series [4], the “Average Time to 50% Loss of Twitch Tension” value was 59.7 ± 4.9^d min and the “effective concentration of inhibitor required for maximum protection” value came to 20 µM. Moreover, the inhibition at 20 µM in series [1] is 6.9%. Further, in the series with neuroblastoma N2a cells, the “cell toxicity” value was “non-toxic to cells” and the “concentration well-tolerated” value is reported as “up to 50 μM”. Further, the “protection from SNAP-25 cleavage” value in series [2] came to 66%. Also, the inhibition at 20 µM in series [3] amounted to 91.9 ± 1.7%.

As for `Oc1c(C(Nc2cccnc2)c2ccc(C(F)(F)F)cc2)ccc2cccnc12` (racemic) [CB 7967495], in series [4], the “effective concentration of inhibitor required for maximum protection” value is 5 µM. For the same compound, the values for the inhibition at 20 µM in series [1] and in series [3] were 30.2 ± 2.4% and 92.7 ± 1.5%, respectively. The “cell toxicity” value with neuroblastoma N2a cells was “non-toxic to cells”. Also, the “concentration well-tolerated” value in the series with neuroblastoma N2a cells is given as “up to 50 μM”. Moreover, the “inhibition of SNAP-25 cleavage” value in series [2] is recorded as “near-to-complete inhibition”.

As to “CRATKML [Ac-CRATKML-NH2, reference compound]”, in series [4], the “Average Time to 50% Loss of Twitch Tension” value was 52.70 ± 9.30^c min and 65.0 ± 11.5^c min.

In the case of `Cc1ccc2ccc(C(Nc3cccnc3)c3ccc(F)cc3)c(O)c2n1` (stereo not drawn) [Compound 5116-048A], the inhibition at 5 µM on BoNT/A came to 87%. Besides, the concentration for half-maximal inhibition (IC50) at BoNT/A (read-out: IC50) is 800 nM.

`O=[N+]([O-])c1ccc(NC(c2ccccc2)c2ccc3cccnc3c2O)cc1` (stereo not drawn) [NSC 1010]: in series [1], the “inhibition of BoNT serotype B light chain” value was “failed to inhibit”. Moreover, the “concentration toxic to N2a cells” value in the series on neuroblastoma N2a cells was no less than 10 µM.

`Nc1cc(C(Nc2ccccn2)c2ccccc2)c(O)c2ncccc12` (stereo not drawn) [Compound 4874-051A]: at BoNT/A, half-maximal inhibition (IC50) was put at 2200 nM and the inhibition at 5 µM stood at 94%.

In the case of `Oc1c(C(Nc2cccnc2)c2ccc(F)cc2)cc(Cl)c2cccnc12` (stereo not drawn) [Compound 5116-051A], at BoNT/A, the IC50 was less than 1000 nM and the inhibition at 5 µM was 91%.

On to `Oc1c(C(Nc2cccnc2)c2ccc(F)cc2)ccc2cccnc12` (stereo not drawn) [Compound 5116-050A], for which, at BoNT/A, the half-maximal inhibitory concentration (IC50) worked out at 1200 nM and the inhibition at 5 µM is 86.7%.

As for `Oc1c(C(Nc2cccnc2)c2ccccc2F)cc(Cl)c2cccnc12` (stereo not drawn) [Compound 5116-052A], on BoNT/A, the IC50 was less than 1000 nM and the inhibition at 5 µM is 97.5%.
